The values below come from patent US7749491B2, “Compounds and methods to enhance rAAV transduction” (priority 2003, dated 2010).

Each structure is given as a SMILES string.

The test system of experiment [1] is HeLa cells. In words: AAV2 FLAG-Luc transduction of HeLa cells (luciferase screen of agents). Type of experiment: cell-based. The text has this:
A. To screen for agents that enhance rAAV transduction, any number of cells can be used. A range of concentrations of the agent to be tested can be determined based on, for instance desirable profiles of the agent, desirable toxicity profiles of the agent and/or concentration of the agents employed in vivo. The usefulness of the cell type chosen for the screen can be confirmed by testing compounds, e.g., proteosome inhibitors described in Example 1 such as LLnL and ZLL which are known to increase rAAV transduction. For example, a AAV2 FLAG-Luc vector was employed to transduce HeLa, ferret fibroblasts, IB3 and Huh (liver) cells in the presence or absence of the proteosome inhibitor MG132. MG132 was confirmed to enhance AAV transduction in all cell types tested: HeLa cell transduction was enhanced about 500-fold at 80 μM, and 200-fold at 40 μM, MG132; ferret fibroblast cell transduction was enhanced about 200-fold at 20 μM, and 17-fold at 4 μM, MG132; IB3-1 cell transduction was enhanced about 30 to 70-fold at 20 to 80 μM MG132; and Huh-7 cell transduction was enhanced about 15-fold at 20 to 80 μM MG132. There was no difference in rAAV transduction efficiency in HeLa cells when either DMSO or ETOH was used as a vehicle for MG132. B. HeLa cells were selected to screen for additional agents that enhance rAAV transduction, although any cell strain or line; or primary cells, may be employed. […] The range of concentrations of the agents to be tested were selected based on solubility profiles, toxicity profiles and/or concentrations previously employed in vivo.
HeLa cells were infected for 2 hours with an MOI of 100 rAAV in the presence of agents, e.g., ritonavir (Norvir) (1, 10 and 100 μM), cyclosporin A (2.5, 25 and 250 μg/ml), epoxomicin (1, 10 and 50 μM), alcacinomycin A (5, 50 or 500 μM), chymostatin (1, 10 and 100 μM), bestatin (1, 10 and 100 μM), doxorubicin (adriamycin) (0.1, 1 and 10 μM), camptothecin (camptosar) (1, 10 and 100 μM), eicosapentanoic acid (1, 10 and 100 μM), tannic acid (2, 20, 200 and 2000 μM), simvastatin, prodrug (2, 20 and 200 μM), cisplatin (0.2, 2 and 20 μg/mL), and chloroquine (4, 40 and 400 μM). Forty-eight hours after infection, cells were harvested for analysis. rAAV transduction was measured by removing the media from the cell cultures, adding 100 μL reporter lysis buffer (RLB) and freezing. The supernatant was thawed and transferred to microfuge tubes, freeze thawed an additional 2 times, clarified by centrifugation for 10 minutes and then analyzed for reporter gene expression on the luminometer. Protein was determined by Bradford analysis and results were expressed as relative light units per mg protein (RLU/mg).
Based on results with doxorubicin, a small number of FDA approved anthracyclines were tested for their relative in vitro and in vivo activities on AAV transduction. HeLa cells were infected with 100 ppc AAV2FLAG-Luc for 2 hours in the presence of different anthracyclines, e.g., doxorubicin, daunarubicin (Cerubidine), epirubicin (Ellence™), and idarubicin (Idamycin®), and cells harvested 48 hours later. The anthracyclines were pharmaceutical grade, and prepared according to the manufacturer's instructions. Prior to use, the agents were diluted in sterile water to an equal mass, e.g., 0.6 μg/mL, 3 μg/mL and 6 μg/mL. For example, 3 μg/mL idamycin increased luciferase expression by over 5000-fold while doxorubin increased luciferase expression by 58-fold. Generally, the potency was as follows: idarubicin>daunarubicin>epirubicin>doxorubicin.

For experiment [2], the system named is polarized human airway epithelia. Kind of experiment: Luciferase rAAV2 / rAAV5-capsid transduction of polarized human airway epithelia. Type of experiment: cell-based.
The subject of another experiment is IB3 cells. Kind of experiment: AV2Luc / AV2/5Luc transduction and nuclear uptake in IB3 cells. Particulars: rAAV2-infected IB3 cells; 40 μM LLnL or 1 μM Dox; 24 hours. It counts as cell-based, human. As for the experimental part:
LLnL and Z-LLL are two tripeptidyl aldehydes shown to inhibit calpains, cathepsins, cysteine proteases as well as the chymotrypsin-like protease activity of proteasomes (Wagner et al., 2002; Donkor, 2000; Sasaki et al., 1990). […] Both classes of proteasome inhibitors bind tightly to the proteasome complex. Dose response curves for these two proteasome-modulating agents were evaluated on IB3, A549, Hela, and primary fibroblasts. The responses were consistent for a number of cell lines and for three different promoters driving luciferase expression. For one set, CMV-driven luciferase constructs with an AAV2-based genome were employed that were packaged into AV2 or AV5 capsids. Cells were infected at various doses of AV2Luc and AV2/5Luc (MOIs 100 to 1000 particles/cell). At the time of infection, cells were treated with various concentrations of LLnL or Doxorubicin and gene expression was assayed at 24 hours post-infection. The effect of proteasome inhibitors on nuclear uptake of virus was evaluated using a previously-described protocol for fractionating viral DNA in the cytoplasm and nucleus (Xiao et al., 2002). Viral DNA content in the cytoplasmic and nuclear fractions was then evaluated by slot blot hybridization against a Luciferase DNA probe.

Another experiment relates to A549 cells. Kind of experiment: AV2Luc / AV2/5Luc transduction of A549 cells with LLnL / doxorubicin. Type of experiment: cell-based, human.
In another experiment the test system is ferret fibroblast. Kind of experiment: rAAV transduction of ferret fibroblasts with LLnL / doxorubicin. It counts as cell-based. On the procedure:
(§1) C. To determine whether combinations of agents that enhance rAAV transduction efficiency have synergistic or additive effects when used in combination, cells were contacted with the proteosome modulator, doxorubicin, and the proteosome inhibitor Z-LLL or LLnL. Different AAV vectors were tested, including splicing vectors and pseudotyped rAAV. Viral stocks utilized were as follows: Av2RSVluc, 5×10^8 particle/μl; Av2RSVlucCap5 (also referred to as Av2/5 CMVLuc), 2×10^9 particle/μl; Av2CMVluc, 1.3×10^9 particle/μl; and Av2CMVlucCap5, 1.1×10^9 particle/μl. Combinations of agents were compared to the agents used alone to determine the efficiency of transduction. LLnL was used at 40, 200 or 400 μM, Z-LLL at 4 μM and doxorubicin at 0.5 or 1 μM when employed alone. When a combination of LLnL and doxorubicin was used, LLnL was used at 4, 10, 20, 40, 200 or 400 μM and doxorubicin at 1 or 5 μM. The apical surface of polarized airway epithelia, HeLa cells or ferret fibroblast was contacted with the agents and rAAV (5×10^9 particles per well).

Experiment [3] has as its system HeLa cells. Kind of experiment: Luciferase rAAV transduction of HeLa cells with LLnL / doxorubicin. Type of experiment: cell-based. On the procedure:
as §1

For experiment [4], the system named is polarized human bronchial epithelial cells. Particulars: hypotonic EGTA solution; cited from earlier work.

As for `COc1cccc2c1C(=O)c1c(O)c3c(c(O)c1C2=O)C[C@@](O)(C(=O)CO)C[C@@H]3O[C@H]1C[C@H](N)[C@H](O)[C@H](C)O1` [doxorubicin], the “increase of luciferase expression” value with HeLa cells [1] (3 μg/mL, 100 ppc AAV2FLAG-Luc 2 hours, harvested 48 hours) was 58 fold. Further, the “outcome in cell line screening” value in the experiment with HeLa cells [1] (HeLa screen) is listed as “tested positive”. For the same compound, the “enhancement of transduction from the apical surface” value in experiment [2] (LLnL 40 μM and/or Dox 5 μM at the time of infection) is 100 fold. The “concentration at which transduction is enhanced” value in experiment [2] (polarized airway epithelial cells) is 5 µM; with A549 cells, 5 µM; in the experiment with ferret fibroblast (ferret fibroblast), 1 µM; in the experiment on HeLa cells [3], 1 µM. Moreover, the “fraction of viral DNA in the nuclear compartment” value with IB3 cells is recorded as “significantly increased the fraction of viral DNA in the nuclear compartment”. Further, the “enhancement of transduction with lacZ splicing vectors” value in the experiment with ferret fibroblast (ferret fibroblasts infected with lacZ splicing vectors) was “about 100 fold”.
Turning to `O=C(O)CN(CCOCCOCCN(CC(=O)O)CC(=O)O)CC(=O)O` [EGTA], the “increase of AAV transduction from the apical surface” value in experiment [4] was 7 to 10 fold.
